One assay addresses aldosterone synthase (CYP11B2) (Macaca fascicularis, UniProt A0A2K5UPL9). The assay is described as follows: Inhibition of aldosterone synthase (cynomolgus adrenal mitochondria, aldosterone by mass spectrometry). The assay is classed as biochemical, cynomolgus monkey. The settings on record: 2 μM corticosterone substrate, 50 units CYP11B2, 90 min, 37° C.; read-out: Aldosterone Inhibition IC50. In short, it runs like this:
(§1)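 Cynomolgus adrenal mitochondria (50 units CYP11B2 activity) incubated with 2 μM corticosterone in 100 mM potassium phosphate pH 7.4, 1% DMSO; started with 1 mM NADPH, 90 min at 37 °C. Aldosterone quantified by mass spectrometry; no-NADPH blank as 0%, no-compound as 100% activity, across compound concentrations.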
Chain of aldosterone synthase (CYP11B2) (Macaca fascicularis, UniProt A0A2K5UPL9) (A0A2K5UPL9 1-503): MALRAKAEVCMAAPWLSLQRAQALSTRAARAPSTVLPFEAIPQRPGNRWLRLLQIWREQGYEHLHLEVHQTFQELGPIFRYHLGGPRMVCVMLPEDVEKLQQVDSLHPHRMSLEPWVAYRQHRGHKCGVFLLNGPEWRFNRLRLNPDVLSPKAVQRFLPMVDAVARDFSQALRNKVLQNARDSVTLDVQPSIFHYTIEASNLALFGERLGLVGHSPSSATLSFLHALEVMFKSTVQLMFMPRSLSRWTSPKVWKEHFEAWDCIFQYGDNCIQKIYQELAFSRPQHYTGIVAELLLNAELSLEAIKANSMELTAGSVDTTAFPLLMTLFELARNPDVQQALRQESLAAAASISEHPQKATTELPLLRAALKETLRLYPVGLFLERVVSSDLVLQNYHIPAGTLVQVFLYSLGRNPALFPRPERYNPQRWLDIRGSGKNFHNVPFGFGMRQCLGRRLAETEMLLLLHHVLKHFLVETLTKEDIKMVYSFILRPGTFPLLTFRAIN
In general, IC50 refers to the concentration that gives 50% inhibition. As for `CC1(C)CC(=O)c2c(ncn2-c2ccc(Cl)c(F)c2)C1` [C-ABM, 3-(4-Chloro-3-fluoro-phenyl)-6,6-dimethyl-3,5,6,7-tetrahydro-benzoimidazol-4-one], the IC50 stood at 4.7 nM.
With `COC(=O)c1ccc(Cn2cnc3c2C(=O)CC(C)(C)C3)cc1` [C-ACZ, 4-(5,5-Dimethyl-7-oxo-4,5,6,7-tetrahydro-benzoimidazol-1-ylmethyl)-benzoic acid methyl ester], the IC50 stood at 34 nM.
For `CC1(C)CC(=O)c2c(ncn2Cc2ccc(F)cc2)C1` [C-ADO, 3-(4-Fluoro-benzyl)-6,6-dimethyl-3,5,6,7-tetrahydro-benzoimidazol-4-one], the IC50 was 56 nM.
In the case of `NC(=O)N1CCCc2cc(-n3cnc4c3C(=O)CCC4)ccc21` [C-ADZ, 6-(7-Oxo-4,5,6,7-tetrahydro-benzoimidazol-1-yl)-3,4-dihydro-2H-quinoline-1-carboxylic acid amide], the IC50 worked out at 99 nM.

The subject of the next assay is aldosterone synthase (CYP11B2). Described as above. The assay is classed as biochemical, cynomolgus monkey. Conditions: selectivity for aldosterone synthase inhibition over cortisol synthase (CYP11B1) inhibition, fold. In short, it runs like this: as §1
Consider `CC1(C)CC(=O)c2c(ncn2-c2ccc(Cl)c(F)c2)C1` [C-ABM, 3-(4-Chloro-3-fluoro-phenyl)-6,6-dimethyl-3,5,6,7-tetrahydro-benzoimidazol-4-one], for which the Selectivity came out at 160.
Same read-out and setting: the same measure for `COC(=O)c1ccc(Cn2cnc3c2C(=O)CC(C)(C)C3)cc1` [C-ACZ, 4-(5,5-Dimethyl-7-oxo-4,5,6,7-tetrahydro-benzoimidazol-1-ylmethyl)-benzoic acid methyl ester]: 41.
On the same count and under the same terms, to `CC1(C)CC(=O)c2c(ncn2Cc2ccc(F)cc2)C1` [C-ADO, 3-(4-Fluoro-benzyl)-6,6-dimethyl-3,5,6,7-tetrahydro-benzoimidazol-4-one] belongs 96; to `NC(=O)N1CCCc2cc(-n3cnc4c3C(=O)CCC4)ccc21` [C-ADZ, 6-(7-Oxo-4,5,6,7-tetrahydro-benzoimidazol-1-yl)-3,4-dihydro-2H-quinoline-1-carboxylic acid amide], 300.

The target in a further assay is cortisol synthase (CYP11B1) (Macaca fascicularis, UniProt A0A2K5ULY1). The assay is described as follows: Inhibition of cortisol synthesis (cynomolgus adrenal mitochondria, cortisol by mass spectrometry). The assay is classed as biochemical, cynomolgus monkey. The settings on record: 11-deoxycortisol substrate, 150 units CYP11B1; read-out: Cortisol Inhibition IC50. The procedure, abridged: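 Cynomolgus adrenal mitochondria (150 units CYP11B1 activity) incubated with 11-deoxycortisol in 100 mM potassium phosphate pH 7.4, 1% DMSO; reaction started with 1 mM NADPH, 90 min at 37° C, stopped with MeCN. Cortisol quantified by mass spectrometry; IC50 from 4-parameter logistic fit versus no-compound (100%) and no-NADPH (0%) controls.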
Turning to `CC1(C)CC(=O)c2c(ncn2-c2ccc(Cl)c(F)c2)C1` [C-ABM, 3-(4-Chloro-3-fluoro-phenyl)-6,6-dimethyl-3,5,6,7-tetrahydro-benzoimidazol-4-one], the IC50 is 770 nM.
With `COC(=O)c1ccc(Cn2cnc3c2C(=O)CC(C)(C)C3)cc1` [C-ACZ, 4-(5,5-Dimethyl-7-oxo-4,5,6,7-tetrahydro-benzoimidazol-1-ylmethyl)-benzoic acid methyl ester], the IC50 is 1400 nM.
With `CC1(C)CC(=O)c2c(ncn2Cc2ccc(F)cc2)C1` [C-ADO, 3-(4-Fluoro-benzyl)-6,6-dimethyl-3,5,6,7-tetrahydro-benzoimidazol-4-one], the IC50 was 5400 nM.
Consider `NC(=O)N1CCCc2cc(-n3cnc4c3C(=O)CCC4)ccc21` [C-ADZ, 6-(7-Oxo-4,5,6,7-tetrahydro-benzoimidazol-1-yl)-3,4-dihydro-2H-quinoline-1-carboxylic acid amide], for which the IC50 was more than 30000 nM.

Source of the values: US10858342B2, “Bicyclic imidazole derivatives useful for the treatment of renal diseases, cardiovascular diseases and fibrotic diseases” (Boehringer Ingelheim International GmbH, priority 2016, dated 2020).
